Laboratory results: US4937390A, “Compound useful for the production of 3-deoxy-3-fluoro-myo-inositol” (University of Pittsburgh, priority 1989, dated 1990)

Tests used:
Type in all cases: cell-based, rat
[1] = tested on: PC12 cells; assay: Uptake and incorporation of [3H]myo-inositol into PC12 cells following treatment with inositol analogs; conditions: for Bound [3H]myo-inositol (incorporated into membranes) / Free [3H]myo-inositol (cytoplasm): one hour [3H]myo-inositol
Method: Since myo-inositol must be incorporated into the cellular plasma membranes in order for it to serve its role as a second messenger, we therefore verified the ability of the 1- and 3-fluoro-myo-inositol analogs to perturb the incorporation of myo-inositol into cellular plasma membranes by the enzyme […] CDP-diacylglycerol-inositol phosphatidylytransferase (phosphatidylinositolsynthesis).
These tests were conducted by treating cells for either 1, 3, 5, or 7 days with the myo-inositol analogs, followed by a brief exposure to radiolabeled myo-inositol ([^3 H]myo-inositol). The extent of incorporation of tritiated myo-inositol would, therefore, reflect the extent to which phosphatidylinositol and its phosphorylated analogs are deficient in the cellular plasma membranes.
Cells were grown as described hereinabove. Twenty-four hours after plating, the medium was changed and cells were exposed to either inositol free medium (Control 2) or medium containing either the 1- or the 3-fluoro-myo-inositol analog. At four different time points --1, 3, 5, and 7 days--cells were tested for their ability to incorporate radiolabeled [^3 H]myo-inositol. This test was conducted by removing the medium and replacing it with RPMI medium (both myo-inositol and serum free) containing only [^3 H]myo-inositol. The cells were exposed to this medium for a period of one hour, following which they were washed three times with phosphate-buffered saline containing excess unlabeled myo-inositol (10 mM). Cells were lysed by treatment with trichloroacetic acid (TCA) and sonicated to insure complete disruption. The cellular homogenate was then collected and spun in a microfuge tube at 12,000 r.p.m. for 15 min. Samples from both the pellet and supernatant were then obtained and the levels of radioactivity in each were determined. Radioactivity in the supernatant corresponded to the amount of free [^3 H]myo-inositol in the cytoplasm of the cell, whereas the radioactivity present in the TCA-precipated pellet represented [^3 H]myo-inositol incorporated into the cellular plasma membranes.
Cells were treated for the indicated time periods with the inositol
analogs, and then exposed for one hour to [^3 H]myoinositol. Numbers
represent DPM/10^6 cells.

[2] = tested on: PC12 cells; assay: Cell growth inhibition (cell counts), dose response and time course in PC12 cells; conditions: for concentration determined to have maximal effects in the dose response study / inhibition of cell replication / Cell Number / potency at inhibiting cell replication relative to the 3-fluoro-myo-inositol analog: PC12 cells; for concentration determined to have maximal effects in the dose response study: cell replication; for inhibition of cell replication: dose response study, maximal effect; for inhibition of cell replication / Cell Number: five days
Method: The biological effects of the 3-fluoro and 1-fluoro myo-inositol analogs were tested in PC12 cells, a cell line derived from a rat pheochromocytoma, which has been widely used to study the effects of various growth factors and […]., Adv. Cell Neurobiol., 3, 373-414, (1982), the disclosure of which is incorporated herein by reference.
PC12 cells were seeded at a density of 3.3×10^5 cells/cm^2 in plastic culture dishes and grown at 37° C. in a humidified atmosphere of 95% air/5% CO2. The basal medium used in these experiments was RPMI-1640 medium (Gibco). In some experiments a specially formulated inositol-free RPMI-1640 medium (Gibco) was used. This basal medium was supplemented with either normal or extensively dialyzed horse serum (10%) and fetal calf serum (5%) (Gibco). Some control dishes were grown in complete RPMI medium, i.e. with myo-inositol and containing non-dialyzed serum (Control 1) and some control dishes were grown in inositol deficient medium, i.e., RPMI without inositol and with dialyzed serum (Control 2). The inositol analogs were dissolved in distilled H2 O and added to the culture medium at the indicated concentrations.
Cell counts were performed by removing the medium, washing the cells gently in PBS with calcium, detaching the cells by 15 minute induction in PBS/EDTA (0.5 mM) containing 0.1% trypsin, and counting in a hemocytometer.
A dose-response study was performed by growing cells in the presence of certain concentrations of the 3-fluoro and the 1-fluoro-myo-inositol analogs. At the end of five days, the cells were counted by the means described hereinabove.
The time course effect on cell replication was then examined, using the concentration of 1-fluoro and 3-fluoro myo-inositol analogs determined to have maximal effects in the dose response study of Table 1. (1 mM and 5 mM for the 1-fluoro and 3-fluoro-myo-inositol analogs, respectively).

[3] = tested on: PC12 cells; assay: Effect on cell size (protein per cell, Lowry) in PC12 cells; conditions: for effect on cell cycle / cell division: chronically treated PC12 cells
Source text: As cells grow in culture, the size of an individual cell varies in a fairly predictable way. The size of a cell can be expressed as the amount of protein present per cell. […] Immediately after mitosis, the cell size drops considerably, frequently to levels approximately half of the pre-mitotic level.
By investigating the size of a cell, it is possible to determine at which point within the cell cycle inhibitors of cell replication are exerting their effects. Accordingly, we investigated the effect of the 1- and 3-fluoro-myo-inositol analogs on the size of cells chronically treated with such analogs.
Cells were grown and treated with 1- and 3-fluoro-myo-inositol analogs as described in Example XIII. On the days indicated, cells were gently harvested without disruption, and the number of cells counted in triplicate in a cell counting chamber. Following determination of the number of cells per sample, the remainder of the cells were pelleted in a microcentrifuge as described hereinabove, and the protein in the sample was determined by the method of Lowry. Thus, it was possible to derive from these two data sets the amount of protein per cell, which is expressed as nanograms of protein per cell, as indicated in Table 3: […]

Structure (SMILES)	Bound [3H]myo-inositol (incorporated into membranes) ([1]; Day 1 of treatment) [DPM/10^6 cells]	Free [3H]myo-inositol (cytoplasm) ([1]; Day 1 of treatment) [DPM/10^6 cells]	Bound [3H]myo-inositol (incorporated into membranes) ([1]; Day 3 of treatment) [DPM/10^6 cells]	Free [3H]myo-inositol (cytoplasm) ([1]; Day 3 of treatment) [DPM/10^6 cells]	Bound [3H]myo-inositol (incorporated into membranes) ([1]; Day 5 of treatment) [DPM/10^6 cells]	Free [3H]myo-inositol (cytoplasm) ([1]; Day 5 of treatment) [DPM/10^6 cells]	Bound [3H]myo-inositol (incorporated into membranes) ([1]; Day 7 of treatment) [DPM/10^6 cells]	Free [3H]myo-inositol (cytoplasm) ([1]; Day 7 of treatment) [DPM/10^6 cells]	concentration determined to have maximal effects in the dose response study [2] [mM]	inhibition of cell replication [2]	Cell Number ([2]; 0.01 mM)	Cell Number ([2]; 0.03 mM)	Cell Number ([2]; 0.10 mM)	Cell Number ([2]; 0.30 mM)	Cell Number ([2]; 1.0 mM)	Cell Number ([2]; 3.0 mM)	Cell Number ([2]; 10.0 mM)	Cell Number ([2]; 30.0 mM)	effect on cell cycle / cell division [3]	Cell size (protein per cell) ([3]; treatment duration 1 day) [nanograms protein/cell]	other results
O[C@@H]1[C@@H](O)[C@@H](O)[C@@H](F)[C@H](O)[C@H]1O [1-deoxy-1-fluoro-myo-inositol]	392 ± 16	8365 ± 787	4614 ± 141	4751 ± 291	2143 ± 314	4295 ± 627	3726 ± 588	7569 ± 757	1	approximately 50%	4.53 ± 0.13 × 10^5 cells/dish	4.18 ± 0.07 × 10^5 cells/dish	3.71 ± 0.03 × 10^5 cells/dish	3.29 ± 0.08 × 10^5 cells/dish	2.73 ± 0.13 × 10^5 cells/dish	2.67 ± 0.09 × 10^5 cells/dish	2.68 ± 0.07 × 10^5 cells/dish	2.72 ± 0.03 × 10^5 cells/dish	arrested in a pre-mitotic state (termed late G2)	0.082 ± 0.01	Time course cell counts ([2]; Day 0, 1 mM, inositol-free medium): 1.46 × 10^5 cells per dish; Time course cell counts ([2]; Day 1, 1 mM): 2.10 ± 0.03 cells per dish, × 10^5; Time course cell counts ([2]; Day 3, 1 mM): 4.5 ± 0.10 cells per dish, × 10^5; Time course cell counts ([2]; Day 5, 1 mM): 8.4 ± 0.7 cells per dish, × 10^5; Time course cell counts ([2]; Day 7, 1 mM): 10.8 ± 0.6 cells per dish, × 10^5; potency at inhibiting cell replication relative to the 3-fluoro-myo-inositol analog ([2]; listed as 1-deoxy-1-deoxy-1-fluoro-myo-inositol): about five-fold; potency at inhibiting cell replication relative to the 3-fluoro-myo-inositol analog ([2]; listed as 1-fluoro-myo-inositol analog): 5 fold; cell size relative to controls ([3]; cells arrested in pre-mitotic state): approximately 2 fold; Cell size (protein per cell) ([3]; treatment duration 3 days): 0.135 ± 0.01 nanograms protein/cell; Cell size (protein per cell) ([3]; treatment duration 5 days): 0.160 ± 0.01 nanograms protein/cell; Cell size (protein per cell) ([3]; treatment duration 7 days): 0.168 ± 0.02 nanograms protein/cell
O[C@@H]1[C@@H](O)[C@H](O)[C@@H](F)[C@@H](O)[C@H]1O [3-deoxy-3-fluoro-myo-inositol]	354 ± 10	3326 ± 253	761 ± 42	2929 ± 189	414 ± 52	2900 ± 383	676 ± 113	4095 ± 161	5	approximately 50%	4.60 ± 0.24 × 10^5 cells/dish	4.49 ± 0.07 × 10^5 cells/dish	4.21 ± 0.05 × 10^5 cells/dish	3.87 ± 0.05 × 10^5 cells/dish	3.21 ± 0.08 × 10^5 cells/dish	2.53 ± 0.04 × 10^5 cells/dish	2.50 ± 0.03 × 10^5 cells/dish	2.36 ± 0.01 × 10^5 cells/dish	continued to increase steadily in size without undergoing cell division	0.086 ± 0.01	level of radioactivity-labeled myo-inositol incorporated into the cellular plasma membranes [1]: quite low; Time course cell counts ([2]; Day 0, 5 mM, inositol-free medium): 1.46 × 10^5 cells per dish; Time course cell counts ([2]; Day 1, 5 mM): 2.12 ± 0.02 cells per dish, × 10^5; Time course cell counts ([2]; Day 3, 5 mM): 4.2 ± 0.1 cells per dish, × 10^5; Time course cell counts ([2]; Day 5, 5 mM): 7.6 ± 0.1 cells per dish, × 10^5; Time course cell counts ([2]; Day 7, 5 mM): 10.6 ± 0.6 cells per dish, × 10^5; cell size relative to control cells ([3]; by day seven): about 3.5 times; Cell size (protein per cell) ([3]; treatment duration 3 days): 0.259 ± 0.01 nanograms protein/cell; Cell size (protein per cell) ([3]; treatment duration 5 days): 0.320 ± 0.01 nanograms protein/cell; Cell size (protein per cell) ([3]; treatment duration 7 days): 0.343 ± 0.03 nanograms protein/cell
